Measured values as given in publication PMC9091252 (Nature Communications, 2022).
Values joined by “and” are separate entries in the source; they are usually repeats but may differ in a detail not shown here. Equal values may be shown once.

Experiments:
[1] = biological target: S1 domain of SARS-CoV-2 (Severe acute respiratory syndrome coronavirus 2, UniProt P0DTC2); assay: FD-based AFM binding probability of S1-functionalized tip on 9-AcSA, SA or streptavidin coated surfaces
[2] = biological target: S1 subunit (Severe acute respiratory syndrome coronavirus 2, UniProt P0DTC2); assay: Dynamic force spectroscopy and kinetic on-rate analysis of the S1 – 9-AcSA bond; format: binding, SARS-CoV-2
[3] = biological target: SARS-CoV-2; assay: AFM inhibition assay: binding probability between SARS-CoV-2 virions and 9-AcSA coated surfaces before and after incubation with oligomers; details: for relative BP, Mean: mean of 3 tips, 0 uM = 1; for relative BP, single tip: normalized to 0 uM = 1

Compound	binding probability in competition assay with free 9-AcSA ([1]; S1 tip on 9-AcSA surface, free 1 mM 9-AcSA)	difference in binding probability between acetylated and non-acetylated SA ([1]; S1 tip, 9-AcSA versus SA coated surface)	koff ([2]; Bell-Evans fit, single S1 – 9-AcSA bond)	KD ([2]; ratio between koff and kon)	Kd ([2]; ratio between koff and kon)	IC50 [3]	relative BP, Mean ([3]; 1 uM)	relative BP, single tip ([3]; 1 uM)	relative BP, Mean ([3]; 10 uM)	relative BP, single tip ([3]; 10 uM)	relative BP, Mean ([3]; 100 uM)	relative BP, single tip ([3]; 100 uM)	reduction in the binding probability ([3]; over the explored range 1, 10, 100 µM)	relative BP, single tip ([3]; 1 uM, listed as Pillar[5]arene NonAc)	relative BP, single tip ([3]; 10 uM, listed as Pillar[5]arene NonAc)	relative BP, single tip ([3]; 100 uM, listed as Pillar[5]arene NonAc)
9-O-acetylated sialic acid [9-AcSA]	significantly lower BP	~ 3 fold	0.24 ± 0.2 s⁻¹	low micromolar range	5.7 ± 5 µM	> 100 µM	0.8501	0.7609 and 0.6994 and 1.09	0.807	0.7029 and 0.638 and 1.08	0.638	0.587 and 0.4969 and 0.83	20-30%	–	–	–
CC(=O)N[C@H]1[C@H]([C@H](O)[C@H](O)CO)O[C@@](OCc2cn(CCOc3cc4c(OCCn5cc(CO[C@]6(C(=O)O)C[C@H](O)[C@@H](NC(C)=O)[C@H]([C@H](O)[C@H](O)CO)O6)nn5)cc3Cc3cc(OCCn5cc(CO[C@]6(C(=O)O)C[C@H](O)[C@@H](NC(C)=O)[C@H]([C@H](O)[C@H](O)CO)O6)nn5)c(cc3OCCn3cc(CO[C@]5(C(=O)O)C[C@H](O)[C@@H](NC(C)=O)[C@H]([C@H](O)[C@H](O)CO)O5)nn3)Cc3cc(OCCn5cc(CO[C@]6(C(=O)O)C[C@H](O)[C@@H](NC(C)=O)[C@H]([C@H](O)[C@H](O)CO)O6)nn5)c(cc3OCCn3cc(CO[C@]5(C(=O)O)C[C@H](O)[C@@H](NC(C)=O)[C@H]([C@H](O)[C@H](O)CO)O5)nn3)Cc3cc(OCCn5cc(CO[C@]6(C(=O)O)C[C@H](O)[C@@H](NC(C)=O)[C@H]([C@H](O)[C@H](O)CO)O6)nn5)c(cc3OCCn3cc(CO[C@]5(C(=O)O)C[C@H](O)[C@@H](NC(C)=O)[C@H]([C@H](O)[C@H](O)CO)O5)nn3)Cc3cc(OCCn5cc(CO[C@]6(C(=O)O)C[C@H](O)[C@@H](NC(C)=O)[C@H]([C@H](O)[C@H](O)CO)O6)nn5)c(cc3OCCn3cc(CO[C@]5(C(=O)O)C[C@H](O)[C@@H](NC(C)=O)[C@H]([C@H](O)[C@H](O)CO)O5)nn3)C4)nn2)(C(=O)O)C[C@@H]1O [compound 4]	–	–	–	–	–	–	0.7825	–	0.836	–	0.9261	–	–	0.6071 and 0.8687 and 0.8718	0.7738 and 0.9394 and 0.7949	0.9286 and 0.9394 and 0.9103
